Source: patent publication US7799785B2, “Substituted tetracyclic tetahydrofuran, pyrrolidine and tetrahydrothiophene derivatives” (Janssen Pharmaceutica NV, priority 2004, dated 2010)

How the values were obtained:
NET = target: T1, NET (Rattus norvegicus, UniProt Q63380); assay: In vitro determination of NET reuptake inhibition ([3H]Nixosetine binding, rat brain cortex membranes)
T1 construct: Cortex from rat brain was collected and homogenised; from tissue; host or cells: rat brain cortex homogenate/membranes
Description: In vitro Determination of NET Reuptake Inhibition
Cortex from rat brain was collected and homogenised using an Ultra-Turrax T25 and a Dual homogeniser in ice-cold homogenising buffer containing Tris, NaCl and KCl (50 mM, 120 mM and 5 mM, respectively, pH 7.4) prior to dilution to an appropriate protein concentration optimised for specific and non-specific binding. […] Membrane-bound activity was detected by filtration through a Packard Filtermate harvester onto GF/B Unifilterplates, washed with ice-cold Tris-HCl buffer, containing NaCl and KCl (50 mM, 120 mM and 4 mM; pH 7.4; 6×0.5 ml). Filters were allowed to dry for 24 h before adding scintillation fluid. Scintillation fluid was allowed to saturate filters for 24 h before counting in a Topcount scintillation counter. Percentage specific bound and competition binding curves were calculated using S-Plus software (Insightful).

[1] = target: T2, human cloned 5-HT2A receptor, expressed in L929 cells (Homo sapiens, UniProt P28223); assay: In vitro radioligand binding affinity for 5-HT2A receptor ([125I]R91150); conditions: read-out: h-5HT2A (converted)
T2 construct: expressed in transfected cells; host or cells: L929 cells
Description: (§1) In vitro Binding Affinity for 5-HT2A and 5-HT2C Receptors
The interaction of the compounds of Formula (I) with 5-HT2A and 5-HT2C receptors was assessed in in vitro radioligand binding experiments. In general, a low concentration of a radioligand with a high binding affinity for the receptor is incubated with a sample of a tissue preparation enriched in a particular receptor (1 to 5 mg tissue) in a buffered medium (0.2 to 5 ml). During the incubation, the radioligands bind to the receptor. When equilibrium of binding is reached, the receptor bound radioactivity is separated from the non-bound radioactivity, and the receptor bound activity is counted. The interaction of the test compounds with the receptors is assessed in competition binding experiments. Various concentrations of the test compound are added to the incubation mixture containing the tissue preparation and the radioligand. Binding of the radioligand will be inhibited by the test compound in proportion to its binding affinity and its concentration. The affinities of the compounds for the 5-HT2 receptors were measured by means of radioligand binding studies conducted with: (a) human cloned 5-HT2A receptor, expressed in L929 cells using [^125I]R91150 as radioligand and (b) human cloned 5-HT2C receptor, expressed in CHO cells using [^3H]mesulergine as radioligand.

[2] = target: T3, human Dopamine D2L receptor (Homo sapiens, UniProt P14416); assay: In vitro binding affinity for human D2L receptor ([3H]Spiperone); conditions: human D2L receptor-transfected CHO cell membranes
T3 construct: expressed in transfected cells; host or cells: CHO cells
Description: In vitro Binding Affinity for Human D2L Receptor
Frozen membranes of human Dopamine D2L receptor-transfected CHO cells were thawed, briefly homogenised using an Ultra-Turrax T25 homogeniser and diluted in Tris-HCl assay buffer containing NaCl, CaCl2, MgCl2, KCl (50, 120, 2, 1, and 5 mM respectively, adjusted to pH 7.7 with HCl) to an appropriate protein concentration optimised for specific and non-specific binding. Radioligand [^3H]Spiperone (NEN, specific activity ˜70 Ci/mmol) was diluted in assay buffer at a concentration of 2 nmol/L. Prepared radioligand (50 μl), along with 50 μl of either the 10% DMSO control, Butaclamol (10^−6 mol/l final concentration), or compound of interest, was then incubated (30 min, 37° C.) with 400 μl of the prepared membrane solution. Membrane-bound activity was filtered through a Packard Filtermate harvester onto GF/B Unifilterplates and washed with ice-cold Tris-HCl buffer (50 mM; pH 7.7; 6×0.5 ml). Filters were allowed to dry before adding scintillation fluid and counting in a Topcount scintillation counter. Percentage specific bound and competition binding curves were calculated using S-Plus software (Insightful).

[3] = target: T4, human cloned 5-HT2C receptor, expressed in CHO cells (Homo sapiens, UniProt P28335); assay: In vitro radioligand binding affinity for 5-HT2C receptor ([3H]mesulergine)
T4 construct: expressed in transfected cells; host or cells: CHO cells
T4 sequence (P28335 33-458): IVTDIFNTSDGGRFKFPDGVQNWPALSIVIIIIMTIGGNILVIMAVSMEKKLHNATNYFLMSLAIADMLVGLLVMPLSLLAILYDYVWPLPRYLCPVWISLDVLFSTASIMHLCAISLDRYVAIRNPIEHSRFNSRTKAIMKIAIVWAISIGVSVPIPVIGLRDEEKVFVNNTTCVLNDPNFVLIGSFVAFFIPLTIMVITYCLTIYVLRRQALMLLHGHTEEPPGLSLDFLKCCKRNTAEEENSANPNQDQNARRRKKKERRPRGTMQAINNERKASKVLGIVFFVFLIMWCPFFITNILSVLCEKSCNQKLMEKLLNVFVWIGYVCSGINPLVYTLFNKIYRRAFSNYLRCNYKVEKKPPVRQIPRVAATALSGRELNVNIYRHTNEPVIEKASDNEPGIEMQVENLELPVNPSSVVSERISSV
Description: as §1
The interaction of the compounds of Formula (I) with 5-HT2A and 5-HT2C receptors was assessed in in vitro radioligand binding experiments. […] During the incubation, the radioligands bind to the receptor. When equilibrium of binding is reached, the receptor bound radioactivity is separated from the non-bound radioactivity, and the receptor bound activity is counted. The interaction of the test compounds with the receptors is assessed in competition binding experiments. Various concentrations of the test compound are added to the incubation mixture containing the tissue preparation and the radioligand. Binding of the radioligand will be inhibited by the test compound in proportion to its binding affinity and its concentration.

T1 sequence (Q63380 1-617): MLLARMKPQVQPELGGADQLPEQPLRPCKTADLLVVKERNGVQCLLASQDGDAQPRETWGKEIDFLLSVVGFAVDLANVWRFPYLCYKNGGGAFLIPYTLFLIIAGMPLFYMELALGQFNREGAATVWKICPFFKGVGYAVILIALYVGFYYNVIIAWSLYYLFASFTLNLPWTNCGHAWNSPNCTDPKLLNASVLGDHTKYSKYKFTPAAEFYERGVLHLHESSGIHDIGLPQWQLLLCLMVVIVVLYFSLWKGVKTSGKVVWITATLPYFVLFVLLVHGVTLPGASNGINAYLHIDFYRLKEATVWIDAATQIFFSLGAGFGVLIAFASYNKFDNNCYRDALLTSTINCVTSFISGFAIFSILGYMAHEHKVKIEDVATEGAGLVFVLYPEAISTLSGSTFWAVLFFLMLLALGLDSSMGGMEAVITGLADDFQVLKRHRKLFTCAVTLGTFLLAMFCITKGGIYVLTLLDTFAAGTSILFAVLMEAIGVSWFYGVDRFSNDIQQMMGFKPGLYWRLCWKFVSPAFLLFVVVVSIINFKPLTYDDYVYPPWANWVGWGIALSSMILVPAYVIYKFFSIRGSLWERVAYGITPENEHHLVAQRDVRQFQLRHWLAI
T2 sequence (P28223 whole entry): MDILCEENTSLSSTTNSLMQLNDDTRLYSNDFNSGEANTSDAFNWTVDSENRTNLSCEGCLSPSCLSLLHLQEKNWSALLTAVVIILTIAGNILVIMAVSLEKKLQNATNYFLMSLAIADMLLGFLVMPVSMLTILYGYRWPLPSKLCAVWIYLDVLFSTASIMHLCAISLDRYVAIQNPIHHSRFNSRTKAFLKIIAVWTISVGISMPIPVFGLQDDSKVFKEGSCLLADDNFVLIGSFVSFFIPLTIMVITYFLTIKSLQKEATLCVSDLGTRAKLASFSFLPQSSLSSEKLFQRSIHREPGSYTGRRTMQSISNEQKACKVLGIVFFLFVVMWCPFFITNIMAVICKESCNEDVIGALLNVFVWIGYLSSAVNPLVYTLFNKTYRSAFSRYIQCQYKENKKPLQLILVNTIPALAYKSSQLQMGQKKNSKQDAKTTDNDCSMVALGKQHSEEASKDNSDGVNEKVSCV
T3 sequence (P14416 whole entry): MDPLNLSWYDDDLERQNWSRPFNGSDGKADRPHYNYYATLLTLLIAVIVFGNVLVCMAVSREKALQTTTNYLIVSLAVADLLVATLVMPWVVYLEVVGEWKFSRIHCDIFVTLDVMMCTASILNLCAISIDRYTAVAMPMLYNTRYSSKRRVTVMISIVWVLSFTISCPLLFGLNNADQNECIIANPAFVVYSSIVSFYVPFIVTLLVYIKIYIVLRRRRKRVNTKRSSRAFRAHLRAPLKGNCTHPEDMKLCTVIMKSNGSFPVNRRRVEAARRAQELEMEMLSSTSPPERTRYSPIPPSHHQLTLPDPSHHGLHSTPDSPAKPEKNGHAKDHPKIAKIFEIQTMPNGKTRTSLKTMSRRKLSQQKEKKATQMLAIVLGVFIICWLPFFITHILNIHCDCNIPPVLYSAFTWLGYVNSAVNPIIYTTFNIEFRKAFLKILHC

SMILES | IC50 (NET) [nM] | IC50 [1] [nM] | IC50 [2] [nM] | IC50 [3] [nM] | NET Reuptake Inhibition (NET) | melting point [°C]
CN[C@@H]1CO[C@@H]2c3cc(F)ccc3Cc3ccccc3[C@H]2C1 (relative stereo) [compound 35, (3S *,4aR*,13bS*)-12-fluoro-N-methyl-2,3,4,4a,9,13b-hexahydrodibenzo[3,4:6,7]-cyclohepta[1,2-b]pyran-3-amine] | > 1000 | > 1000 | > 1000 |  |  | 
COC(=O)N1[C@@H](CN(C)C)C[C@@H]2c3ccccc3Cc3ccc(F)cc3[C@H]21 [36a, Methyl(2R,3aR,12bS)-2-[(dimethylamino)methyl]-11-fluoro-3,3a,8,12b-tetrahydro-dibenzo[3,4:6,7]cyclohepta[1,2-b]pyrrole-1(2H)-carboxylate] | 692 | > 1000 | > 1000 | > 1000 |  | 
CN(C)C[C@H]1C[C@@H]2c3ccccc3Cc3ccc(F)cc3[C@H]2N1C=O [36c, (2R,3aR,12bS)-2-[(dimethylamino)methyl]-11-fluoro-3,3a,8,12b-tetrahydrodibenzo[3,4:6,7]cyclohepta[1,2-b]pyrrole-1(2H)-carbaldehyde] | 224 | 550 | 4900 | 77.6 |  | 
CN(CCO)C[C@H]1C[C@@H]2c3ccccc3Cc3ccc(F)cc3[C@H]2N1 [43b, 2-[{[(2R,3aR,12bS)-11-fluoro-1,2,3,3a,8,12b-hexahydrodibenzo[3,4:6,7]-cyclohepta[1,2-b]pyrrol-2-yl]methyl}(methyl)amino]-ethanol] | 15.8 | 67.6 | 437 | 89.1 |  | 
CN1CC(=O)N2[C@H](C[C@@H]3c4ccccc4Cc4ccc(F)cc4[C@H]32)C1 [compound 13, (5aS,14bR,15aR)-7-fluoro-2-methyl-1,2,3,5a,10,14b,15,15a-octahydro-4H-dibenzo-[3′,4′:6′,7′]cyclohepta[1′,2′:4,5]pyrrolo[1,2-a]pyrazin-4-one] |  |  |  |  | <5 | 139 to 141
N[C@@H]1CO[C@H]2c3cc(F)ccc3Cc3ccccc3[C@H]2C1 [compound 30, (3S,4aR,13bR)-12-fluoro-2,3,4,4a,9,13b-hexahydrodibenzo[3,4:6,7]cyclohepta-[1,2-b]pyran-3-amine] | 302 |  |  |  |  | 74 to 76
